Values quoted from earlier work, collected in patent publication US20230363334A1, “METHOD FOR INCREASING CONTENT AND GENE EXPRESSION OF AROMATIC SUBSTANCE IN FRUITS AND VEGETABLES BY USING HYDROGEN-RICH WATER” (NANJING AGRICULTURAL UNIVERSITY, priority 2020, published 2023).

Conditions: one atmosphere and 20° C.

[HH] [hydrogen]
Maximum concentration of hydrogen dissolved in water (saturation concentration): 1.6 ppm | Solubility of hydrogen (volumes of hydrogen per volume of water): 1.83%
